Laboratory results reported in ChEMBL document CHEMBL5724914, “Linking interpersonal differences in gut microbiota composition and drug biotransformation activity” (2024).

Tests used:
[1] = (§1) The drug is tested on Z-008 corresponding to metagenome with ENA study accession number: PRJEB37062 and ENA sample accession number: ERS12561808 for biotransformation under anaerobic condition. The drug concentrations were measured over 9 timepoints collected between 0 and 24 hours of incubation by liquid-chromatography-coupled mass spectrometry (LC–MS); settings: 2 µM
[2] = (§2) The drug is tested on WLS-052 corresponding to human gut metagenome with ENA study accession number: PRJEB37062 and ENA sample accession number: ERS12561747 for biotransformation under anaerobic condition. The drug concentrations were measured over 9 timepoints collected between 0 and 24 hours of incubation by liquid-chromatography-coupled mass spectrometry (LC–MS); settings: 2 µM
[3] = human gut metagenome, 24 h, 2 µM
[4] = as §2, with “Z-006” for “WLS-052”, “mouse” for “human”, “ERS12561806” for “ERS12561747”; settings: 2 µM
[5] = human gut metagenome, 24 h, 2 µM; remark: listed apart in the source
[6] = as §1, with “Z-005” for “Z-008”, “ERS12561805” for “ERS12561808”; settings: 2 µM
[7] = as §2, with “WLS-007” for “WLS-052”, “ERS12561742” for “ERS12561747”; settings: 2 µM
[8] = as §2, with “Z-002” for “WLS-052”, “rabbit” for “human”, “ERS12561802” for “ERS12561747”; settings: 2 µM
[9] = as §2, with “WLS-027” for “WLS-052”, “ERS12561744” for “ERS12561747”; settings: 2 µM
[10] = human gut metagenome, 24 h, 2 µM; remark: listed apart in the source
[11] = human gut metagenome, 24 h, 2 µM; remark: listed apart in the source
[12] = human gut metagenome, 24 h, 2 µM; remark: listed apart in the source
[13] = human gut metagenome, 24 h, 2 µM; remark: listed apart in the source
[14] = as §2, with “WLS-039” for “WLS-052”, “ERS12561746” for “ERS12561747”; settings: 2 µM
[15] = human gut metagenome, 24 h, 2 µM; remark: listed apart in the source
[16] = human gut metagenome, 24 h, 2 µM; remark: listed apart in the source
[17] = as §2, with “WLS-073” for “WLS-052”, “ERS12561749” for “ERS12561747”; settings: 2 µM
[18] = as §2, with “WLS-090” for “WLS-052”, “ERS12561753” for “ERS12561747”; settings: 2 µM
[19] = as §2, with “WLS-370” for “WLS-052”, “ERS12561793” for “ERS12561747”; settings: 2 µM
[20] = as §2, with “Z-009” for “WLS-052”, “pig” for “human”, “ERS12561809” for “ERS12561747”; settings: 2 µM
Note: call rule not given here.

Compound: c1ccc2[nH]c(-c3cscn3)nc2c1 [THIABENDAZOLE]
- Bacterial Biotransformation [1]: Compound NOT metabolized
- Bacterial Biotransformation [2]: Compound NOT metabolized
- Bacterial Biotransformation [3]: Compound NOT metabolized
- Bacterial Biotransformation [4]: Compound NOT metabolized
- Bacterial Biotransformation [5]: Compound metabolized
- Bacterial Biotransformation [6]: Compound NOT metabolized
- Bacterial Biotransformation [7]: Compound NOT metabolized
- Bacterial Biotransformation [8]: Compound NOT metabolized
- Bacterial Biotransformation [9]: Compound NOT metabolized
- Bacterial Biotransformation [10]: Compound NOT metabolized
- Bacterial Biotransformation [11]: Compound NOT metabolized
- Bacterial Biotransformation [12]: Compound NOT metabolized
- Bacterial Biotransformation [13]: Compound metabolized
- Bacterial Biotransformation [14]: Compound NOT metabolized
- Bacterial Biotransformation [15]: Compound NOT metabolized
- Bacterial Biotransformation [16]: Compound NOT metabolized
- Bacterial Biotransformation [17]: Compound NOT metabolized
- Bacterial Biotransformation [18]: Compound metabolized
- Bacterial Biotransformation [19]: Compound NOT metabolized
- Bacterial Biotransformation [20]: Compound NOT metabolized

Compound: CCN(CC)CCNC(=O)c1cc(S(C)(=O)=O)ccc1OC [TIAPRIDE]
- Bacterial Biotransformation [1]: Compound NOT metabolized
- Bacterial Biotransformation [2]: Compound NOT metabolized
- Bacterial Biotransformation [3]: Compound NOT metabolized
- Bacterial Biotransformation [4]: Compound NOT metabolized
- Bacterial Biotransformation [5]: Compound metabolized
- Bacterial Biotransformation [6]: Compound NOT metabolized
- Bacterial Biotransformation [7]: Compound NOT metabolized
- Bacterial Biotransformation [8]: Compound metabolized
- Bacterial Biotransformation [9]: Compound NOT metabolized
- Bacterial Biotransformation [10]: Compound NOT metabolized
- Bacterial Biotransformation [11]: Compound NOT metabolized
- Bacterial Biotransformation [12]: Compound metabolized
- Bacterial Biotransformation [13]: Compound metabolized
- Bacterial Biotransformation [14]: Compound NOT metabolized
- Bacterial Biotransformation [15]: Compound NOT metabolized
- Bacterial Biotransformation [16]: Compound NOT metabolized
- Bacterial Biotransformation [17]: Compound NOT metabolized
- Bacterial Biotransformation [18]: Compound metabolized
- Bacterial Biotransformation [19]: Compound NOT metabolized
- Bacterial Biotransformation [20]: Compound NOT metabolized

Compound: CC(C)(C)NC[C@H](O)COc1nsnc1N1CCOCC1.O=C(O)/C=C\C(=O)O [TIMOLOL MALEATE]
- Bacterial Biotransformation [1]: Compound NOT metabolized
- Bacterial Biotransformation [2]: Compound NOT metabolized
- Bacterial Biotransformation [3]: Compound NOT metabolized
- Bacterial Biotransformation [4]: Compound NOT metabolized
- Bacterial Biotransformation [5]: Compound NOT metabolized
- Bacterial Biotransformation [6]: Compound NOT metabolized
- Bacterial Biotransformation [7]: Compound NOT metabolized
- Bacterial Biotransformation [8]: Compound NOT metabolized
- Bacterial Biotransformation [9]: Compound NOT metabolized
- Bacterial Biotransformation [10]: Compound NOT metabolized
- Bacterial Biotransformation [11]: Compound NOT metabolized
- Bacterial Biotransformation [12]: Compound NOT metabolized
- Bacterial Biotransformation [13]: Compound NOT metabolized
- Bacterial Biotransformation [14]: Compound NOT metabolized
- Bacterial Biotransformation [15]: Compound NOT metabolized
- Bacterial Biotransformation [16]: Compound NOT metabolized
- Bacterial Biotransformation [17]: Compound NOT metabolized
- Bacterial Biotransformation [18]: Compound NOT metabolized
- Bacterial Biotransformation [19]: Compound NOT metabolized
- Bacterial Biotransformation [20]: Compound NOT metabolized

Compound: CC[C@@]1(O)C(=O)OCc2c1cc1n(c2=O)Cc2cc3c(CN(C)C)c(O)ccc3nc2-1 [TOPOTECAN]
- Bacterial Biotransformation [1]: Compound NOT metabolized
- Bacterial Biotransformation [2]: Compound NOT metabolized
- Bacterial Biotransformation [3]: Compound NOT metabolized
- Bacterial Biotransformation [4]: Compound NOT metabolized
- Bacterial Biotransformation [5]: Compound NOT metabolized
- Bacterial Biotransformation [6]: Compound NOT metabolized
- Bacterial Biotransformation [7]: Compound NOT metabolized
- Bacterial Biotransformation [8]: Compound NOT metabolized
- Bacterial Biotransformation [9]: Compound NOT metabolized
- Bacterial Biotransformation [10]: Compound NOT metabolized
- Bacterial Biotransformation [11]: Compound NOT metabolized
- Bacterial Biotransformation [12]: Compound NOT metabolized
- Bacterial Biotransformation [13]: Compound NOT metabolized
- Bacterial Biotransformation [14]: Compound NOT metabolized
- Bacterial Biotransformation [15]: Compound NOT metabolized
- Bacterial Biotransformation [16]: Compound NOT metabolized
- Bacterial Biotransformation [17]: Compound NOT metabolized
- Bacterial Biotransformation [18]: Compound NOT metabolized
- Bacterial Biotransformation [19]: Compound NOT metabolized
- Bacterial Biotransformation [20]: Compound NOT metabolized

Compound: COc1ccc(C(CN(C)C)C2(O)CCCCC2)cc1 (stereo not given) [VENLAFAXINE]
- Bacterial Biotransformation [1]: Compound NOT metabolized
- Bacterial Biotransformation [2]: Compound NOT metabolized
- Bacterial Biotransformation [3]: Compound NOT metabolized
- Bacterial Biotransformation [4]: Compound NOT metabolized
- Bacterial Biotransformation [5]: Compound metabolized
- Bacterial Biotransformation [6]: Compound NOT metabolized
- Bacterial Biotransformation [7]: Compound NOT metabolized
- Bacterial Biotransformation [8]: Compound NOT metabolized
- Bacterial Biotransformation [9]: Compound NOT metabolized
- Bacterial Biotransformation [10]: Compound NOT metabolized
- Bacterial Biotransformation [11]: Compound NOT metabolized
- Bacterial Biotransformation [12]: Compound NOT metabolized
- Bacterial Biotransformation [13]: Compound NOT metabolized
- Bacterial Biotransformation [14]: Compound NOT metabolized
- Bacterial Biotransformation [15]: Compound NOT metabolized
- Bacterial Biotransformation [16]: Compound NOT metabolized
- Bacterial Biotransformation [17]: Compound NOT metabolized
- Bacterial Biotransformation [18]: Compound NOT metabolized
- Bacterial Biotransformation [19]: Compound NOT metabolized
- Bacterial Biotransformation [20]: Compound NOT metabolized

Compound: CCOC(=O)C1=C[C@]2(CC)CCCN3CCc4c(n1c1ccccc41)[C@@H]32 [VINPOCETINE]
- Bacterial Biotransformation [1]: Compound NOT metabolized
- Bacterial Biotransformation [2]: Compound metabolized
- Bacterial Biotransformation [3]: Compound metabolized
- Bacterial Biotransformation [4]: Compound NOT metabolized
- Bacterial Biotransformation [5]: Compound metabolized
- Bacterial Biotransformation [6]: Compound NOT metabolized
- Bacterial Biotransformation [7]: Compound NOT metabolized
- Bacterial Biotransformation [8]: Compound metabolized
- Bacterial Biotransformation [9]: Compound metabolized
- Bacterial Biotransformation [10]: Compound metabolized
- Bacterial Biotransformation [11]: Compound NOT metabolized
- Bacterial Biotransformation [12]: Compound metabolized
- Bacterial Biotransformation [13]: Compound NOT metabolized
- Bacterial Biotransformation [14]: Compound NOT metabolized
- Bacterial Biotransformation [15]: Compound NOT metabolized
- Bacterial Biotransformation [16]: Compound NOT metabolized
- Bacterial Biotransformation [17]: Compound metabolized
- Bacterial Biotransformation [18]: Compound metabolized
- Bacterial Biotransformation [19]: Compound metabolized
- Bacterial Biotransformation [20]: Compound metabolized

Compound: C[C@@H](c1ncncc1F)[C@](O)(Cn1cncn1)c1ccc(F)cc1F [VORICONAZOLE]
- Bacterial Biotransformation [1]: Compound NOT metabolized
- Bacterial Biotransformation [2]: Compound metabolized
- Bacterial Biotransformation [3]: Compound metabolized
- Bacterial Biotransformation [4]: Compound NOT metabolized
- Bacterial Biotransformation [5]: Compound metabolized
- Bacterial Biotransformation [6]: Compound metabolized
- Bacterial Biotransformation [7]: Compound metabolized
- Bacterial Biotransformation [8]: Compound metabolized
- Bacterial Biotransformation [9]: Compound metabolized
- Bacterial Biotransformation [10]: Compound metabolized
- Bacterial Biotransformation [11]: Compound metabolized
- Bacterial Biotransformation [12]: Compound metabolized
- Bacterial Biotransformation [13]: Compound metabolized
- Bacterial Biotransformation [14]: Compound metabolized
- Bacterial Biotransformation [15]: Compound metabolized
- Bacterial Biotransformation [16]: Compound metabolized
- Bacterial Biotransformation [17]: Compound metabolized
- Bacterial Biotransformation [18]: Compound metabolized
- Bacterial Biotransformation [19]: Compound metabolized
- Bacterial Biotransformation [20]: Compound metabolized

Compound: CCN(C(C)=O)c1cccc(-c2ccnc3c(C#N)cnn23)c1 [ZALEPLON]
- Bacterial Biotransformation [1]: Compound NOT metabolized
- Bacterial Biotransformation [2]: Compound metabolized
- Bacterial Biotransformation [3]: Compound metabolized
- Bacterial Biotransformation [4]: Compound NOT metabolized
- Bacterial Biotransformation [5]: Compound metabolized
- Bacterial Biotransformation [6]: Compound NOT metabolized
- Bacterial Biotransformation [7]: Compound metabolized
- Bacterial Biotransformation [8]: Compound metabolized
- Bacterial Biotransformation [9]: Compound metabolized
- Bacterial Biotransformation [10]: Compound metabolized
- Bacterial Biotransformation [11]: Compound NOT metabolized
- Bacterial Biotransformation [12]: Compound metabolized
- Bacterial Biotransformation [13]: Compound metabolized
- Bacterial Biotransformation [14]: Compound metabolized
- Bacterial Biotransformation [15]: Compound NOT metabolized
- Bacterial Biotransformation [16]: Compound metabolized
- Bacterial Biotransformation [17]: Compound metabolized
- Bacterial Biotransformation [18]: Compound metabolized
- Bacterial Biotransformation [19]: Compound metabolized
- Bacterial Biotransformation [20]: Compound metabolized
